# Tests used:
# Format in all cases: binding, BALB/c mice
# [1] = test system: monoclonal antibody to 3-substituted 5-FU KLH immunogen (example 6b); test: Indirect competitive microtiter plate immunoassay (ELISA), monoclonal antibody; plate coating 3-substituted BSA conjugate (1:1, example 7b); conditions: relative to 5-FU (ratio of IC50 for 5-FU to IC50 of analyte), 3-Substituted KLH Immunogen, plate coating 3-Substituted BSA Conjugate (example 7b)
# Description: (§1) Ten Female BALB/c mice were immunized i.p. with 100 μg/mouse of 5-FU-KLH prepared in example 5 or with 5-FU-BTG prepared in example 6a, emulsified in Complete Freund's Adjuvant. Mice were boosted once four weeks after the initial injection with 100 μg/mouse of the same immunogens emulsified in Incomplete Freund's Adjuvant. Ten days after the boost test bleeds from each mouse were obtained by orbital bleed. The anti-serum from these test bleeds contained 5-FU antibodies evaluated in Examples 12a, 13, and 14. For monoclonal antibodies ten Female BALB/c mice were immunized i.p. with 100 μg/mouse of 3-substituted 5-FU-KLH prepared in example 6b, emulsified in Complete Freund's Adjuvant. Mice were boosted once four weeks after the initial injection with 100 μg/mouse of the same immunogens emulsified in Incomplete Freund's Adjuvant. Ten days after the boost test bleeds from each mouse were obtained by orbital bleed and these were screened as in examples 12a and 15. To produce monoclonal antibodies starting four days before the fusion (day 0), the mice were injected i.p. with 400 μg (day 3), 200 μg (day 2) and 200 μg (day 1) 3-substituted 5-FU KLH immunogen in PBS on three successive days. Spleen cells were isolated from the selected mice and fused with 2×10^7 SP2/0 cells with 50% polyethylene glycol 1500 according to the method of Coligan, J. E. et al., eds., Current Protocols in Immunology, 2.5.1-2.5.8, (1992), Wiley & Sons, NY. The fused cells were plated on 10 96-well plates in DMEM/F12 supplemented with 20% FetalClone I, 2% L-glutamine (100 mM) and 2% 50×HAT. Two weeks later, the hybridoma supernatant was assayed for the presence of anti-5-FU by ELISA (example 12b). Positive wells were expanded and again screened by the same method. The positive clones were confirmed for 5-FU binding by a competitive ELISA (examples 12a and 15). Clones positive by ELISA were subcloned once or twice by limiting dilution according to the method disclosed in Coligan, J. E. et al., eds., Current Protocols in Immunology, 2.5.8-2.5.17, (1992), Wiley & Sons, NY.
# (§2) The ELISA method for measuring 5-FU concentrations was performed in polystyrene microtiter plates (Nunc MaxiSorp C8 or F8 Immunomodules) optimized for protein binding and containing 96 wells per plate. Each well was coated with 5-FU-BSA conjugate (prepared as in example 7b) by adding 300 μL of 5-FU-BSA conjugate at 10 μg/mL in 0.05M sodium bicarbonate, pH=9.6, and incubating for three hours at room temperature. The wells were washed with 0.05M sodium bicarbonate, pH9.6 and then were blocked with 375 μL of 5% sucrose, 0.2% sodium caseinate solution for 30 minutes at room temperature. After removal of the post-coat solution the plates were dried at 37° C. overnight.
# (§3) The ELISA method for screening 5-FU antibodies (produced in example 9) was performed with the microtiter plates that were sensitized with 5-FU-BSA as described in examples 7a, 7b and 8. The antibody screening assay was performed by diluting the antisera containing 5-FU antibodies to 1:100, 1:1,000, 1:10,000 and 1:100,000 in phosphate buffered saline containing 0.1% BSA and 0.01% thimerosal. To each well of 5-FU-BSA sensitized wells (prepared in examples 11a, 11b and 10) 100 μL of diluted antibody was added and incubated for 10 minutes at room temperature with shaking. During this incubation antibody binds to the 5-FU-conjugate in the well. The wells of the plates were washed three times with 0.02 M TRIS, 0.9% NaCl, 0.5% Tween-80 and 0.001% Thimerosal, pH 7.8 to remove any unbound antibody. To detect the amount of 5-FU antibody bound to the 5-FU-BSA conjugate in the wells, 100 μL of a goat anti-mouse antibody-HRP enzyme conjugate (Jackson Immunoresearch) diluted 1/2000 in PBS with 0.1% BSA, 0.05% ANS, 0.01% thimerosal, capable of binding specifically with murine immunoglobulins and producing a colored product when incubated with a substrate, were added to each well. […]
# [2] = test system: polyclonal antibody to 3-Substituted 5-FU BTG Immunogen (example 6a); test: Indirect competitive microtiter plate immunoassay (ELISA), antibodies to 5-FU derivative 13 conjugate; plate coating 1-substituted BSA conjugate (20:1, example 8); conditions: relative to 5-FU (ratio of IC50 for 5-FU to IC50 of analyte), 3-Substituted BTG Immunogen, plate coating 1-Substituted BSA Conjugate (20:1 ratio)
# Description: as §1
# as §2, with “8)” for “7b)”, “400” for “375”
# as §3
# [3] = test system: polyclonal antibody to 1-Substituted 5-FU KLH Immunogen (example 5); test: Indirect competitive microtiter plate immunoassay (ELISA), antibodies to 5-FU derivative 4 conjugate; plate coating 3-substituted BSA conjugate (10:1, example 7a); conditions: relative to 5-FU (ratio of IC50 for 5-FU to IC50 of analyte), 1-Substituted KLH Immunogen, plate coating 3-Substituted BSA Conjugate (10:1 ratio)
# Description: as §1
# as §2, with “7a)” for “7b)”, “400” for “375”
# as §3
structure (smiles),measurement,setting,value
"O=c1[nH]cc(F)c(=O)[nH]1 [5Fluorouracil, 5-fluoro-uracil]",Cross-Reactivity,[1],100.0%
same,Cross-Reactivity,[2],100.0%
same,Cross-Reactivity,[3],100.0%
"Nc1cc[nH]c(=O)n1 [Cytosine, cytosine]",Cross-Reactivity,[1],<0.01%
same,Cross-Reactivity,[1]; listed as cytosine,less than 0.01%
same,Cross-Reactivity,[2],<0.3%
same,Cross-Reactivity,[2]; listed as cytosine,less than 0.03%
same,Cross-Reactivity,[3],<0.1%
"O=c1[nH]c(=O)n(C2CCCO2)cc1F (stereo not drawn) [Tegafur, tegafur]",Cross-Reactivity,[1],1.0%
same,Cross-Reactivity,[1]; listed as tegafur,approximately 1%
same,Cross-Reactivity,[2],0.5%
same,Cross-Reactivity,[2]; listed as tegafur,less than 1%
same,Cross-Reactivity,[3],200.0%
same,Cross-Reactivity,[3]; listed as tegafur,200%
"Cc1c[nH]c(=O)[nH]c1=O [Thymine, thymine]",Cross-Reactivity,[1],3.2%
same,Cross-Reactivity,[1]; listed as thymine,less than 4%
same,Cross-Reactivity,[2],12.0%
same,Cross-Reactivity,[2]; listed as thymine,about 12%
same,Cross-Reactivity,[3],6.7%
"O=c1cc[nH]c(=O)[nH]1 [Uracil, uracil]",Cross-Reactivity,[1],7.3%
same,Cross-Reactivity,[1]; listed as uracil,less than 8%
same,Cross-Reactivity,[2],7.5%
same,Cross-Reactivity,[2]; listed as uracil,less than 8%
same,Cross-Reactivity,[3],4.0%

# Reference: patent US9551724B2, “5-fluoro-uracil immunoassay” (SALADAX BIOMEDICAL, INC., priority 2005, dated 2017)
